Like-named read-outs stand apart in the source and are kept apart here. Where a SMILES comes first, the peptide text is derived from it. Bridges are numbered along the chain shown (N, C = ends).
Columns and labels:
[1] = biological target: cMET; conditions: cited from earlier work
Experimental: To answer our questions raised in the introduction, we chose the ectodomain of MET fused to Fc as a selection target for two reasons. (1) Since we previously performed the RaPID campaign using a thioether-macrocyclic peptide library and successfully identified potent ligands with the range of KD of 2–20 nM (Table S1A), this target has been validated as a reliable protein to reproduce the selection experiment.[22] (2) At the time when the selection was performed previously, the NGS technology was unavailable in our laboratory, and thereby the sequences were determined by ∼40 clones available fr ... || page 9: Table S1A. Representative peptide sequences discovered by RaPID system. Residues engaged in thioether- macrocyclization are marked with asterisks. mRNA display (RaPID system) Diversity scale: >1012 Screening KD IC50 Library design/ Consensus motif/ Variants Reference Target (nM) (nM) Note Peptide sequence DW*X2MeSX2MeF-MeG/X- E6AP 0.6 DW*X8-15C* 6 (32) XMeFPC* 92 LY*WIX2TWPXVXRXC* 2 Akt2 L/DY*X4-12C* (33) 110 LY*ILVRNRXLRVDC* 2 3.8 LY*SNFRI-LysTfa-RYSNSSC* 21 SIRT2 L/DY*-Xn-LysTfa-XnC* (34) 3.7 DY*HDYRI-LysTfa-RYHTYPC* 16 94 LF*VVVSTDPWVNGLYIDC* 2 8 LF*IGHYRVKVHPISLERC* 1 VEGFR2 L/DF*X ...

[2] = biological target: Fc-fused MET (His-/hFc-tagged human MET ectodomain) (Homo sapiens, UniProt P08581); test: SPR binding kinetics of selected macrocyclic peptides to Fc-fused MET
[3] = biological target: T1, ectodomain of MET (hepatocyte growth factor receptor) fused to Fc (UniProt P08581 25-932); test: SPR; macrocyclic peptides on MET; concentration-dependent sensorgrams fitted by a 1:1 binding model; conditions: both partners purified
T1 construct: MET, hepatocyte growth factor receptor, a receptor tyrosine kinase; ectodomain; also called MET-Fc; Fc-tagged MET

[4] = biological target: T1, ectodomain of MET (hepatocyte growth …); test: as above; conditions: both partners purified; remark: listed apart in the source
[5] = biological target: T2, ectodomain of MET fused to Fc (UniProt P08581 25-932); test: SPR
T2 chain: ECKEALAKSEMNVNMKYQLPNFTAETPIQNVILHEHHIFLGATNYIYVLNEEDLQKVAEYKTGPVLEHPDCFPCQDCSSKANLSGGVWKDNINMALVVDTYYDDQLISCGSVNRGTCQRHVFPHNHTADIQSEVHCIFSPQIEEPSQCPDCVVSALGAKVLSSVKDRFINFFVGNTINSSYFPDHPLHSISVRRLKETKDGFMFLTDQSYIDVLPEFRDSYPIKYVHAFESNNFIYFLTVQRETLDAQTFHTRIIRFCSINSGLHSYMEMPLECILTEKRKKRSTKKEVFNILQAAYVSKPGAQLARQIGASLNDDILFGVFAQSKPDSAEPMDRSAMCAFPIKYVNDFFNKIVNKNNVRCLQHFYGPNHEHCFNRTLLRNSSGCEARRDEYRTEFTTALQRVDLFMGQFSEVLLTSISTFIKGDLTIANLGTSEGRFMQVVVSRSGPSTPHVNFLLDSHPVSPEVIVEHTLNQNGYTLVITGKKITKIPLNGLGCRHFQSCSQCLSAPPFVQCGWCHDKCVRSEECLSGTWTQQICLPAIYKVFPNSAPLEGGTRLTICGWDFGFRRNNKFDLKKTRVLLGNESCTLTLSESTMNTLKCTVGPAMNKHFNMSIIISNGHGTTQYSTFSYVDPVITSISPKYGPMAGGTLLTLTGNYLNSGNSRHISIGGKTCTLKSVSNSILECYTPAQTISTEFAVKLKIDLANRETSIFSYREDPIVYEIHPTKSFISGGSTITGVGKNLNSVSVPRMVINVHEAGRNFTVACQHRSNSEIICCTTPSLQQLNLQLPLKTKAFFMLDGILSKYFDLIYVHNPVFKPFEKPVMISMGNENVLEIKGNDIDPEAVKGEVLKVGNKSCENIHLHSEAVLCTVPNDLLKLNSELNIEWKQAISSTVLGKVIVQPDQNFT

[6] = library L/DY*X4-15C*, mRNA display (RaPID system), ref (16), read-out: KD (Table S1A, screening target cMET)

## CC[C@H](C)[C@@H]1NC(=O)[C@H](Cc2ccc(O)cc2)NC(=O)CSC[C@@H](C(=O)NCC(N)=O)NC(=O)[C@H]([C@@H](C)O)NC(=O)[C@H]([C@@H](C)CC)NC(=O)[C@H](Cc2ccccc2)NC(=O)[C@H](CCCNC(=N)N)NC(=O)[C@H](Cc2c[nH]c3ccccc23)NC(=O)[C@H](CC(N)=O)NC(=O)[C@@H]2CCCN2C(=O)[C@H](CO)NC(=O)[C@H](CC(N)=O)NC(=O)[C@H](Cc2ccccc2)NC(=O)[C@H](CCC(=O)O)NC(=O)[C@H](CC(N)=O)NC(=O)[C@H](Cc2c[nH]c3ccccc23)NC(=O)[C@H](CO)NC1=O [aML5, reference compound] ({CH2CO}-YISWNEFNSPNWRFITCG-NH2; thioether N-17)
[1]; previously determined value, read-out: KD (previous RaPID campaign)
  Kd: 19 nM
[2]; SPR conditions as E1
  kd: 0.00606 s⁻¹
[2]; pH 7.4, read-out: ka
  kon: 539000 M⁻¹ s⁻¹
[2]; read-out: ka, Measure 1
  kon: 371000 M⁻¹ s⁻¹
[2]; read-out: ka, Measure 2
  kon: 405000 M⁻¹ s⁻¹

## DY*WYYAWDQTYKAFPC* (sidechain bridge or staple)
[1]; [6]
  Kd: 2.3 nM

## DY*RQFNRRTHEVWNLDC* (sidechain bridge or staple)
[1]; [6]
  Kd: 2.4 nM

## {CH2CO}-YIEWNRFNSKLWNCNCCG-NH2 (thioether N-17; cysteine pairing not given here) [macrocyclic peptide 10-4]
[3]
  Kd: 308 nM

B1: macrocyclic peptide 12-2 (peptide)
chain: {CH2CO}-YYSWSGNVSESVKWNSCG-NH2
modifications: thioether N-17
SMILES: CC(C)[C@@H]1NC(=O)[C@H](CC(N)=O)NC(=O)CNC(=O)[C@H](CO)NC(=O)[C@H](Cc2c[nH]c3ccccc23)NC(=O)[C@H](CO)NC(=O)[C@H](Cc2ccc(O)cc2)NC(=O)[C@H](Cc2ccc(O)cc2)NC(=O)CSC[C@@H](C(=O)NCC(N)=O)NC(=O)[C@H](CO)NC(=O)[C@H](CC(N)=O)NC(=O)[C@H](Cc2c[nH]c3ccccc23)NC(=O)[C@H](CCCCN)NC(=O)[C@H](C(C)C)NC(=O)[C@H](CO)NC(=O)[C@H](CCC(=O)O)NC(=O)[C@H](CO)NC1=O
[4]
  Kd: 8.67 nM

B2: macrocyclic peptide 10-6 (peptide)
chain: {CH2CO}-YWWYYWYRDEYLWRTRCG-NH2
modifications: thioether N-17
SMILES: CC(C)C[C@@H]1NC(=O)[C@H](Cc2ccc(O)cc2)NC(=O)[C@H](CCC(=O)O)NC(=O)[C@H](CC(=O)O)NC(=O)[C@H](CCCNC(=N)N)NC(=O)[C@H](Cc2ccc(O)cc2)NC(=O)[C@H](Cc2c[nH]c3ccccc23)NC(=O)[C@H](Cc2ccc(O)cc2)NC(=O)[C@H](Cc2ccc(O)cc2)NC(=O)[C@H](Cc2c[nH]c3ccccc23)NC(=O)[C@H](Cc2c[nH]c3ccccc23)NC(=O)[C@H](Cc2ccc(O)cc2)NC(=O)CSC[C@@H](C(=O)NCC(N)=O)NC(=O)[C@H](CCCNC(=N)N)NC(=O)[C@H]([C@@H](C)O)NC(=O)[C@H](CCCNC(=N)N)NC(=O)[C@H](Cc2c[nH]c3ccccc23)NC1=O
[3]
  Kd: 219 nM

B3: macrocyclic peptide 10-5 (peptide)
chain: {CH2CO}-YLLWHKYDNKDWVYVDCG-NH2
modifications: thioether N-17
SMILES: CC(C)C[C@@H]1NC(=O)[C@H](Cc2ccc(O)cc2)NC(=O)CSC[C@@H](C(=O)NCC(N)=O)NC(=O)[C@H](CC(=O)O)NC(=O)[C@H](C(C)C)NC(=O)[C@H](Cc2ccc(O)cc2)NC(=O)[C@H](C(C)C)NC(=O)[C@H](Cc2c[nH]c3ccccc23)NC(=O)[C@H](CC(=O)O)NC(=O)[C@H](CCCCN)NC(=O)[C@H](CC(N)=O)NC(=O)[C@H](CC(=O)O)NC(=O)[C@H](Cc2ccc(O)cc2)NC(=O)[C@H](CCCCN)NC(=O)[C@H](Cc2c[nH]cn2)NC(=O)[C@H](Cc2c[nH]c3ccccc23)NC(=O)[C@H](CC(C)C)NC1=O
[5]
  koff: 0.00694 s⁻¹
[3]
  Kd: 19.5 nM

B4: macrocyclic peptide 10-2 (peptide)
chain: {CH2CO}-YWYYTFDGRWKEYGAACG-NH2
modifications: thioether N-17
SMILES: C[C@@H]1NC(=O)CNC(=O)[C@H](Cc2ccc(O)cc2)NC(=O)[C@H](CCC(=O)O)NC(=O)[C@H](CCCCN)NC(=O)[C@H](Cc2c[nH]c3ccccc23)NC(=O)[C@H](CCCNC(=N)N)NC(=O)CNC(=O)[C@H](CC(=O)O)NC(=O)[C@H](Cc2ccccc2)NC(=O)[C@H]([C@@H](C)O)NC(=O)[C@H](Cc2ccc(O)cc2)NC(=O)[C@H](Cc2ccc(O)cc2)NC(=O)[C@H](Cc2c[nH]c3ccccc23)NC(=O)[C@H](Cc2ccc(O)cc2)NC(=O)CSC[C@@H](C(=O)NCC(N)=O)NC(=O)[C@H](C)NC1=O
[3]
  Kd: 31 nM
